Results: patent US8466195B2, “Methods and compositions for treating complications of diabetes and vascular diseases using flavones” (Salk Institute for Biological Studies, priority 2009, dated 2013)

Tests used:
Assay type in all cases: cell-based
[1] = tested on: cells treated with 20 μM iodoacetic acid (IAA); experiment: In vitro ischemia (iodoacetic acid, MTT cell viability); conditions: 20 μM IAA 2 h, MTT 20 h later
Method: Briefly, cells were seeded onto 96-well microtiter plates at a density of 5×10^3 cells per well. The next day, the medium was replaced with DMEM supplemented with 7.5% DFCS and the cells were treated with 20 μM iodoacetic acid (IAA) alone or in the presence of the different fisetin derivatives. After 2 h the medium in each well was aspirated and replaced with fresh medium without IAA but containing the fisetin derivatives. 20 h later, the medium in each well was aspirated and replaced with fresh medium containing 2.5 μg/ml MTT. After 4 h of incubation at 37° C., cells were solubilized with 100 μl of a solution containing 50% dimethylformamide and 20% SDS (pH 4.7). The absorbance at 570 nm was measured on the following day with a microplate reader (Molecular Devices). Results obtained from the MTT assay correlated directly with the extent of cell death as confirmed visually. Controls included compound alone to test for toxicity and compound with no cells to test for interference with the assay chemistry.

HT22 cells = experiment: Oxidative glutamate toxicity (MTT cell viability); conditions: Mus musculus, HT-22; 5 mM glutamate, 24 hours, MTT; read-out: EC50 oxid. glut. tox.
Method: Cell viability was determined by a modified version of 3-(4,5-dimethylthiazol-2-yl)-2,5-diphenyl tetrazolium bromide (MTT) assay based on the standard procedure (Hansen M B et al. J. Immunol. Methods 119:203-210, 1989). Briefly, cells were seeded onto 96-well microtiter plates at a density of 5×10^3 cells per well. The next day, the medium was replaced with DMEM supplemented with 7.5% DFCS and the cells were treated with the different fisetin derivatives alone or in the presence of 5 mM glutamate. Twenty four hours later, the medium in each well was aspirated and replaced with fresh medium containing 2.5 μg/ml MTT. After 4 hours of incubation at 37° C., cells were solubilized with 100 μA of a solution containing 50% dimethylformamide and 20% SDS (pH 4.7). The absorbance at 570 nm was measured on the following day with a microplate reader (Molecular Devices). Results obtained from the MTT assay correlated directly with the extent of cell death as confirmed visually. Controls employing wells without cells were used to determine the effects of the agents upon the assay chemistry.
As shown in panel (A) of FIG. 3, HT22 cells were untreated (ct) or treated with 10 μM fisetin (fis) in the absence of presence of 5 mM glutamate for 24 hr and GSH was measured enzymatically and normalized to protein. As shown in panel (B) of FIG. 3, HT22 cells in 96-well plates were treated with 5 mM glutamate and the indicated concentrations of fisetin. MTT reduction was measured after 24 hr.

HT-22 nerve cells = HT-22 nerve cells exposed to glutamate: MG adducts and viability
Method: HT-22 nerve cells were exposed to 0.5 mM glutamate and Glo-1 expression monitored at 8 and 24 hrs. In panel (B) of FIG. 2, Fisetin is shown to prevent both cell death and protein glycation. HT-22 cells were exposed to 5 mM glutamate in the presence or absence of 2 μM fisetin. MG adducts were determined by Western blotting 8 hrs after glutamate exposure and viability after 24 hrs. Actin is at the bottom of the blot. In panel (C) of FIG. 2, the Glo-1 inhibitor s-p-bromobenzylglutathione […] is shown to potentiate cell death. HT-22 cells were exposed to 1 mM glutamate plus or minus 10 or 20 μM BBGD.

| Compound | EC50 [1] [nM] | EC50 (HT22 cells) [nM] | toxicity in the absence of glutamate (HT-22 nerve cells; 20 μM BBGD, no glutamate) | cell death in the presence of glutamate (HT-22 nerve cells; 1 mM glutamate plus 10 or 20 μM BBGD) |
| --- | --- | --- | --- | --- |
| COc1cccc(-c2oc3cc(OC)c(OC)cc3c(=O)c2O)c1 | 1000 | < 10000 |  |  |
| O=c1c(O)c(-c2ccc(O)c(O)c2)oc2cc(O)c(O)cc12 | > 1000 | < 10000 |  |  |
| Cc1cc2oc(-c3ccc(O)c(O)c3)cc(=O)c2cc1C | < 1000 | < 10000 |  |  |
| CCOc1ccc(-c2oc3cc(C)c(C)cc3c(=O)c2O)cc1OCC | < 1000 | < 10000 |  |  |
| CCOc1ccc(-c2oc3cc(OC)c(OC)cc3c(=O)c2O)cc1OCC | > 1000 | < 10000 |  |  |
| N[C@@H](CCC(=O)N[C@@H](CSCc1ccc(Br)cc1)C(=O)NCC(=O)O)C(=O)O [BBGD, s-p-bromobenzylglutathione, reference compound] |  |  | only mildly toxic | greatly potentiates cell death |
| Cc1cc2oc(-c3ccc(O)c(O)c3)c(O)c(=O)c2cc1C | < 1000 | < 10000 |  |  |
| O=c1c(O)c(-c2ccc(O)c(O)c2)oc2cc(O)ccc12 [drawing 10] | > 1000 | < 10000 |  |  |
| CCOc1ccc(-c2cc(=O)c3cc(C)c(C)cc3o2)cc1OCC | > 1000 |  |  |  |
| O=c1cc(-c2ccc(O)c(O)c2)oc2cc(O)c(O)cc12 | > 1000 | > 10000 |  |  |
| COc1cc2oc(-c3ccc(O)c(O)c3)c(O)c(=O)c2cc1OC | > 1000 | < 10000 |  |  |
| COc1cc2oc(-c3ccc(O)c(O)c3)cc(=O)c2cc1OC | < 1000 | < 10000 |  |  |
